According to patent US9499550B2 (BRISTOL-MYERS SQUIBB COMPANY, priority 2012, dated 2016):
Read-outs that look alike come from different tables or passages of the source.

Experiments:
[1] = test system: HCV genotype 1b (Con1) replicon in HUH-7 cells; test: HCV replicon luciferase reporter assay, genotype 1b; type: cell-based; conditions: Hepatitis C virus, Huh-7, 72 h, 3 days incubation
How it was run: (§1)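 Replicon inhibition for both genotypes was measured as Renilla luciferase signal (EnduRen, 7.5 μM final, 2 h) after 3-day, 37° C exposure of replicon-bearing HUH-7 cells in 4% FCS DMEM, 0.5% DMSO. The 1b construct carries S1179I; the 1a H77 construct carries P1496L and S2204I. Twenty-point, 3-fold dilutions were fitted four-parametrically for EC50, and CC50 was taken from multiplexed Cell Titer-Blue.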

[2] = test system: HCV genotype 1a (H77 strain) replicon in HUH-7 cells; test: HCV replicon luciferase reporter assay, genotype 1a; type: cell-based; conditions: Hepatitis C virus, Huh-7, 72 h, 3 days incubation
How it was run: as §1

[3] = GETYPE1B, HCV genotype 1b replicon luciferase, read-out: LE_1b (EC50, range)
[4] = GETYPE1A, HCV genotype 1a replicon luciferase, read-out: LE_1a (EC50, range)
[5] = HCV genotype 1b replicon luciferase assay, range class, read-out: LE_1b (EC50, range)
[6] = HCV genotype 1a replicon luciferase assay, range class, read-out: LE_1a (EC50, range)
[7] = HCV genotype 1b replicon luciferase, read-out: LE_1b (EC50, range)
[8] = HCV genotype 1a replicon luciferase, read-out: LE_1a (EC50, range)

| Structure (SMILES) | EC50 [1, 7] | EC50 [2, 8] | also measured |
| --- | --- | --- | --- |
| C[C@@H]1CC/C=C\[C@@H]2C[C@@]2(C(=O)NS(=O)(=O)C2(C)CC2)NC(=O)[C@@H]2C[C@@H](Oc3ncc(O)c4ccccc34)CN2C(=O)[C@@H](NC(=O)OC(C)(C)C(F)(F)F)[C@H](C)C1 [Compound 4103] |  |  | EC50 [1, 3]: 4.82 to 103 nM; EC50 [2, 4]: 4.82 to 103 nM |
| COc1cnc(O[C@@H]2C[C@H]3C(=O)N[C@]4(C(=O)NS(=O)(=O)C5(CF)CC5)C[C@H]4/C=C\CC[C@@H](C)C[C@@H](C)[C@H](NC(=O)OC4(C(C)C)COC4)C(=O)N3C2)c2ccccc12 [Compound 1054, 3-isopropyloxetan-3-yl ((2R,6S,7R,9R,13aS,14aR,16aS,Z)-14a-(((1-(fluoromethyl)cyclopropyl)sulfonyl)carbamoyl)-2-((4-methoxyisoquinolin-1-yl)oxy)-7,9-dimethyl-5,16-dioxo-1,2,3,5,6,7,8,9,10,11,13a,14,14a,15,16,16a-hexadecahydrocyclopropa[e]pyrrolo[1,2-a][1,4]diazacyclopentadecin-6-yl)carbamate] |  |  | EC50 [1, 5]: < 5.46 nM; EC50 [2, 6]: < 5.46 nM |
| COc1cc2c(OC)cnc(O[C@@H]3C[C@H]4C(=O)N[C@]5(C(=O)NS(=O)(=O)C6CC6)C[C@H]5/C=C\CC[C@@H](C)C[C@@H](C)[C@H](NC(=O)OC(C)(C)C)C(=O)N4C3)c2cc1F [Compound 4074, tert-butyl (2R,6S,7R,9R,13aS,14aR,16aS,Z)-14a-(cyclopropylsulfonylcarbamoyl)-2-(7-fluoro-4,6-dimethoxyisoquinolin-1-yloxy)-7,9-dimethyl-5,16-dioxo-1,2,3,5,6,7,8,9,10,11,13a,14,14a,15,16,16a-hexadecahydrocyclopropa[e]pyrrolo[1,2-a][1,4]diazacyclopentadecin-6-ylcarbamate] | < 5.46 nM | < 5.46 nM |  |
| C[C@@H]1CC/C=C\[C@@H]2C[C@@]2(C(=O)NS(=O)(=O)C2CC2)NC(=O)[C@@H]2C[C@@H](Oc3nccc4c5c(ccc34)N(C)CCO5)CN2C(=O)[C@@H](NC(=O)OC(C)(C)C(C)(F)F)[C@H](C)C1 [Compound 5282, 3,3-difluoro-2-methylbutan-2-yl((2R,6S,7R,9R,13aS,14aR,16aS,Z)-14a-((cyclopropylsulfonyl)carbamoyl)-7,9-dimethyl-2-((4-methyl-3,4-dihydro-2H-[1,4]oxazino[2,3-f]isoquinolin-7-yl)oxy)-5,16-dioxo-1,2,3,5,6,7,8,9,10,11,13a,14,14a,15,16,16a-hexadecahydrocyclopropa[e]pyrrolo[1,2-a][1,4]diazacyclopentadecin-6-yl)carbamate] | < 5.46 nM | < 5.46 nM |  |
| CC[C@@H]1C[C@H](C)CC/C=C\[C@@H]2C[C@@]2(C(=O)NS(=O)(=O)C2(C)CC2)NC(=O)[C@@H]2C[C@@H](Oc3nc4c(c5cc(OC)ccc35)CCCO4)CN2C(=O)[C@H]1NC(=O)OC(C)(C)C(F)(F)F [Compound 6095, 1,1,1-trifluoro-2-methylpropan-2-yl((2R,6S,7R,9R,13aS,14aR,16aS,Z)-7-ethyl-2-((9-methoxy-2,3-dihydro-1H-pyrano[2,3-c]isoquinolin-6-yl)oxy)-9-methyl-14a-(((1-methylcyclopropyl)sulfonyl)carbamoyl)-5,16-dioxo-1,2,3,5,6,7,8,9,10,11,13a,14,14a,15,16,16a-hexadecahydrocyclopropa[e]pyrrolo[1,2-a][1,4]diazacyclopentadecin-6-yl)carbamate] | 0.1 to 0.5 nM | 0.51 to 1 nM |  |
| [2H]C([2H])([2H])Oc1cnc(O[C@@H]2C[C@H]3C(=O)N[C@]4(C(=O)NS(=O)(=O)C5(C)CC5)C[C@H]4/C=C\CC[C@@H](C)C[C@@H](C)[C@H](NC(=O)NC(C)(C)C)C(=O)N3C2)c2ccccc12 [Compound 5107, (2R,6S,7R,9R,13aS,14aR,16aS,Z)-6-(3-(tert-butyl)ureido)-7,9-dimethyl-N-((1-methylcyclopropyl)sulfonyl)-5,16-dioxo-2-((4-(trideuteromethoxy)isoquinolin-1-yl)oxy)-1,2,3,5,6,7,8,9,10,11,13a,14,14a,15,16,16a-hexadecahydrocyclopropa[e]pyrrolo[1,2-a][1,4]diazacyclopentadecine-14a-carboxamide] | < 5.46 nM | < 5.46 nM |  |
| CC[C@@H]1C[C@H](C)CC/C=C\[C@@H]2C[C@@]2(C(=O)NS(=O)(=O)C2(C)CC2)NC(=O)[C@@H]2C[C@@H](Oc3ncc(F)c4cc(OC)ccc34)CN2C(=O)[C@H]1NC(=O)OC(C)(C)C(F)(F)F [Compound 4379] |  |  | EC50 [1, 3]: 0.51 to 1 nM; EC50 [2, 4]: 1.01 to 5 nM |
| COc1cc(F)cc2c(O[C@@H]3C[C@H]4C(=O)N[C@]5(C(=O)NS(=O)(=O)C6CC6)C[C@H]5/C=C\CC[C@@H](C)C[C@@H](C)[C@H](NC(=O)OCC5(C)CC5)C(=O)N4C3)nccc12 [Compound 3172, (1-methylcyclopropyl)methyl ((2R,6S,7R,9R,13aS,14aR,16aS,Z)-14a-((cyclopropylsulfonyl)carbamoyl)-2-((7-fluoro-5-methoxyisoquinolin-1-yl)oxy)-7,9-dimethyl-5,16-dioxo-1,2,3,5,6,7,8,9,10,11,13a,14,14a,15,16,16a-hexadecahydrocyclopropa[e]pyrrolo[1,2-a][1,4]diazacyclopentadecin-6-yl)carbamate] |  |  | EC50 [1, 5]: < 5.46 nM; EC50 ([1]; HCV genotype 1b replicon luciferase assay, read-out: LE_1b (EC50)): 1.18 nM; EC50 [2, 6]: < 5.46 nM; EC50 ([2]; HCV genotype 1a replicon luciferase assay, read-out: LE_1a (EC50)): 1.04 nM |
| CCC(C)(CC)OC(=O)N[C@@H]1C(=O)N2C[C@H](Oc3nccc4c5c(ccc34)OCCO5)C[C@H]2C(=O)N[C@]2(C(=O)NS(=O)(=O)C3CC3)C[C@H]2/C=C\CC[C@H](C)C[C@H]1C [Compound 5265, 3-methylpentan-3-yl((2R,6S,7R,9S,13aS,14aR,16aS,Z)-14a-((cyclopropylsulfonyl)carbamoyl)-2-((2,3-dihydro-[1,4]dioxino[2,3-f]isoquinolin-7-yl)oxy)-7,9-dimethyl-5,16-dioxo-1,2,3,5,6,7,8,9,10,11,13a,14,14a,15,16,16a-hexadecahydrocyclopropa[e]pyrrolo[1,2-a][1,4]diazacyclopentadecin-6-yl)carbamate] | < 5.46 nM | 4.82 to 103 nM |  |
| COc1cc2ccccc2c(O[C@@H]2C[C@H]3C(=O)N[C@]4(C(=O)NS(=O)(=O)C5(C)CC5)C[C@H]4/C=C\CC[C@@H](C)C[C@@H](C)[C@H](NC(=O)OC(C)(C)C(F)(F)F)C(=O)N3C2)n1 [Compound 6015, 1,1,1-trifluoro-2-methylpropan-2-yl((2R,6S,7R,9R,13aS,14aR,16aS,Z)-2-((3-methoxyisoquinolin-1-yl)oxy)-7,9-dimethyl-14a-(((1-methylcyclopropyl)sulfonyl)carbamoyl)-5,16-dioxo-1,2,3,5,6,7,8,9,10,11,13a,14,14a,15,16,16a-hexadecahydrocyclopropa[e]pyrrolo[1,2-a][1,4]diazacyclopentadecin-6-yl)carbamate] | < 5.46 nM | < 5.46 nM | EC50 ([1]; HCV genotype 1b replicon luciferase, read-out: LE_1b (EC50)): 0.24 nM; EC50 ([2]; HCV genotype 1a replicon luciferase, read-out: LE_1a (EC50)): 1.19 nM |
| C[C@H]1CC/C=C\[C@@H]2C[C@@]2(C(=O)NS(=O)(=O)C2CC2)NC(=O)[C@@H]2C[C@@H](Oc3nccc4c5c(ccc34)OCCO5)CN2C(=O)[C@@H](NC(=O)OC(C)(C)C(F)(F)F)[C@H](C)C1 [Compound 5258, 1,1,1-trifluoro-2-methylpropan-2-yl((2R,6S,7R,9S,13aS,14aR,16aS,Z)-14a-((cyclopropylsulfonyl)carbamoyl)-2-((2,3-dihydro-[1,4]dioxino[2,3-f]isoquinolin-7-yl)oxy)-7,9-dimethyl-5,16-dioxo-1,2,3,5,6,7,8,9,10,11,13a,14,14a,15,16,16a-hexadecahydrocyclopropa[e]pyrrolo[1,2-a][1,4]diazacyclopentadecin-6-yl)carbamate] | < 5.46 nM | 4.82 to 103 nM |  |
| [2H]C([2H])([2H])Oc1cnc(O[C@@H]2C[C@H]3C(=O)N[C@]4(C(=O)NS(=O)(=O)C5(C)CC5)C[C@H]4/C=C\CC[C@H](C)C[C@@H](C)[C@H](NC(=O)NC(C)(C)C)C(=O)N3C2)c2ccccc12 [Compound 5106, (2R,6S,7R,9S,13aS,14aR,16aS,Z)-6-(3-(tert-butyl)ureido)-7,9-dimethyl-N-((1-methylcyclopropyl)sulfonyl)-5,16-dioxo-2-((4-(trideuteromethoxy)isoquinolin-1-yl)oxy)-1,2,3,5,6,7,8,9,10,11,13a,14,14a,15,16,16a-hexadecahydrocyclopropa[e]pyrrolo[1,2-a][1,4]diazacyclopentadecine-14a-carboxamide] | < 5.46 nM | < 5.46 nM |  |
| C[C@@H]1CC/C=C\[C@@H]2C[C@@]2(C(=O)NS(=O)(=O)C2(C)CC2)NC(=O)[C@@H]2C[C@@H](Oc3nccc4c5c(ccc34)OCCO5)CN2C(=O)[C@@H](NC(=O)OCC2(C)CC2)[C@H](C)C1 [Compound 5251, (1-methylcyclopropyl)methyl ((2R,6S,7R,9R,13aS,14aR,16aS,Z)-2-((2,3-dihydro-[1,4]dioxino[2,3-f]isoquinolin-7-yl)oxy)-7,9-dimethyl-14a-(((1-methylcyclopropyl)sulfonyl)carbamoyl)-5,16-dioxo-1,2,3,5,6,7,8,9,10,11,13a,14,14a,15,16,16a-hexadecahydrocyclopropa[e]pyrrolo[1,2-a][1,4]diazacyclopentadecin-6-yl)carbamate] | < 5.46 nM | < 5.46 nM |  |
